In US20080090767A1, “Agent for prophylaxis of reflex sympathetic dystrophy after cerebral apoplexy” (Asahi Kasei Pharma Corporation, priority 2006, published 2008):

Columns and labels:
[1] = test system: RSD triggered and developed by a trauma or surgical invasion; details: literature report; cited from earlier work
[2] = test system: patients with hemiplegia attributed to cerebrovascular disease (stroke) at Brunnstrom stage III or lower, not yet developing RSD; assay: Test of prevention of onset of post-stroke RSD (Example 1); type: in vivo, human
Excerpt: Test subjects were 32 patients with hemiplegia attributed to cerebrovascular disease (stroke) at Brunnstrom stage III or lower in either the upper limb or a finger on admission. Patients already developing RSD (shoulder-hand syndrome) on admission and patients with pain in the shoulder joint or swollen paralyzed limbs were excluded from the test. […] On the other hand, 21 test subjects were classified into a rehabilitation alone group (control group) and compared with the EL administration group. Physical therapy and therapeutic exercise, occupational therapy, and the management of the paralyzed limbs were performed thoroughly in all the cases. […] EL administration was initiated 11 to 59 days after an attack of stroke (25.8 days on average) and continued until 5 months after the attack of stroke. The same observation period was applied to the control group. The test subjects were diagnosed as developing RSD (shoulder-hand syndrome) if they had diffuse pain not localized to the shoulder joint, edema involving skin color changes, skin temperature abnormalities, and range of motion limitations, and the practice of their rehabilitation was restricted. These criteria agreed to Veldman's diagnostic criteria or diagnostic criteria for CRPS-type 1 provided by the International Association for the Study of Pain.
Activities of daily living (ADL) were evaluated on the basis of the Barthel Index (BI) and the range of motion (ROM) of shoulder joint. The movable range of shoulder joint (also referred to as “shoulder ROM”) was regarded as restricted (Shoulder-ROM-restrictions were present.) if either abduction or flexion was restricted in measurement. The test subjects were also examined for sensory impairment, aphasia, and unilateral spatial neglect on admission.
Statistical analysis was conducted with unpaired t-test, Fisher's exact test or Wilcoxon test, and 5% or lower significance level was regarded as being significant.

[3] = test system: patients with hemiplegia attributed to cerebrovascular disease (stroke) who developed RSD (shoulder-hand syndrome); assay: Test of treatment of post-stroke RSD (Reference Example 1); type: in vivo, human
Procedure: EL was administered after the onset of RSD (shoulder-hand syndrome) in the same use and dose as in Example 1 to 11 patients with hemiplegia attributed to cerebrovascular disease (stroke) at Brunnstrom stage III or lower in either the upper limb or a finger on admission, who developed RSD (shoulder-hand syndrome). These patients were classified into a therapeutic administration group. On the other hand, the EL administration group of Example 1 was compared as a control (preventive administration group) with the therapeutic administration group.

[4] = EL preventive administration group, 20 units i.m. once a week, until 5 months after the attack of stroke
[5] = preventive administration group
[6] = therapeutic administration group

Molecule | Effect on the initial onset of RSD in subjects having no anamnesis of RSD after a trauma or surgical invasion [1] | Incidence of RSD converted to incidence in all patients with hemiplegia attributed to stroke in the facility ([2]; EL administration group) | Incidence of RSD (cases that developed RSD) ([2]; EL preventive administration group, 1 of the 12 cases) | The number of test subjects developing post-stroke RSD: Developed [2, 4] | The number of test subjects developing post-stroke RSD: Not developed [2, 4] | Incidence of RSD when EL administration was initiated within 48 days after stroke ([2]; administration initiated within 48 days after stroke) | Barthel index, Average ± SE (at completion of administration) [2, 5] | Barthel index, Median (at completion of administration) [2, 5] | No RSD, the number of persons (at completion of administration) [2, 5] | Barthel index, Average ± SE (at completion of administration) [3, 6] | Barthel index, Median (at completion of administration) [3, 6] | No RSD, the number of persons (at completion of administration) ([3]; therapeutic administration group (EL after onset of RSD))
O=C1O[C@H]([C@@H](O)CO)C(O)=C1O [vitamin C] | preventive effect |  |  |  |  |  |  |  |  |  |  | 
1-butyric acid-7-(L-2-aminobutyric acid)-26-L-aspartic acid-27-L-valine-29-L-alanine-calcitonin [elcatonin] |  | approximately 1.3% | 8.3% | 1 | 11 | 0% | 60.8 ± 9.3 | 72.5 | 11 | 31.8 ± 7.8 | 25 | 0
